From patent publication US8778972B2, “5-pyridin-3-yl-1, 3-dihydro-indol-2-on derivatives and their use as modulators of aldosterone synthase and/or CYP11B1” (Novartis AG, priority 2009, dated 2014)

Key:
CYP11B1 = target: T1, CYP11B1 (Homo sapiens, UniProt P15538); assay: Cortisol cell secretion in NCI-H295R cells (CYP11B1 activity); format: cell-based; conditions: for inhibition at 1 µM: read-out: Cortisol cell secretion (% Inhib. @ 1 μM)
T1 construct: the NCI-H295R cells have Cyp11 B1 (steroid 11 β-hydroxylase); host or cells: NCI-H295R
T1 sequence (P15538 25-503): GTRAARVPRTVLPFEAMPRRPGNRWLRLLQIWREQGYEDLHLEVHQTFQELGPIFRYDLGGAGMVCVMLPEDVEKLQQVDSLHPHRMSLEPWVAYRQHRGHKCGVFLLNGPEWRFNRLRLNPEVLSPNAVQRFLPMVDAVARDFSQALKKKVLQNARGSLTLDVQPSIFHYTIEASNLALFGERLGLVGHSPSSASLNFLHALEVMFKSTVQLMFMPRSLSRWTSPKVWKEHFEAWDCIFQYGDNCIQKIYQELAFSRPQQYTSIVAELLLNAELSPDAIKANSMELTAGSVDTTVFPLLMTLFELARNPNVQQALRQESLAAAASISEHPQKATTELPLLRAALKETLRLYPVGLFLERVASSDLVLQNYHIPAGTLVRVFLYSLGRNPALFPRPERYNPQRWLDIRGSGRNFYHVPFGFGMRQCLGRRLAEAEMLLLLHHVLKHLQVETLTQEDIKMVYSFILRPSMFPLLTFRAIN
From the text: The in vitro inhibitory activities for CYP11B1 can be determined by the following assay.
The cell line NCI-11295R was originally isolated from an adrenocortical carcinoma and has been characterized in the literature through the stimulable secretion of steroid hormones and the presence of the enzymes essential for steroidogenesis. Thus, the NCI-H295R cells have Cyp11 B1 (steroid 11 β-hydroxylase). The cells show the physiological property of zonally undifferentiated human foetal adrenocortical cells which, however, have the capacity to produce the steroid hormones which are formed in the three, phenotypically distinguishable zones in the adult adrenal cortex.
The NCI-H295R cells (American Type Culture Collection, ATCC, Rockville, Md., USA) are grown in Dulbeoco's Modified Eagle' Ham F-12 Medium (DME/F12), which has been supplemented with Ulroser SF Serum (Soprachem, Cergy-Saint-Christophe, France), insulin, transferrin, selenite (I-T-S, Becton Dickinson Biosciences, Franklin lakes, N.J., USA) and antibiotics in 75 cm^2 cell culture vessels at 37° C. and in a 95% air-5% carbon dioxide atmosphere. The cells are subsequently transferred for colony formation into a 24-well incubation vessel. They are cultivated there in DME/F12 medium, which is now supplemented with 0.1% bovine serum instead of Ultroser SF for 24 hours. The experiment is initiated by cultivating the cells in DME/F12 medium which is supplemented with 0.1% bovine serum albumin and test compound, in the presence or absence of cell stimulants, for 72 hours. The test substance is added in a concentration range from 0.2 nanomolar to 20 millimolar. Cell stimulants which can be used are angiotensin II ([…] or 100 nanomolar), potassium ions (16 millimolar), forskolin (10 micromolar) or a combination of two stimulants.
The excretion of aldosterone, cortisol, corticosterone and estradiol/estrone into the culture medium can be detected and quantified by commercially available, specific monoclonal antibodies in radioimmunoassays in accordance with the manufacturer's instructions.
(§1) Inhibition of the release of certain steroids can be used as a measure of the respective enzyme inhibition by the added test compounds. The dose-dependent inhibition of enzymic activity by a compound is calculated by means of an inhibition plot which is characterized by an IC50.
The inhibition activity of cortisol production (CYP11B1 activity) can also be expressed in percentage inhibition (% inhibition) at a given concentration (e.g. % inhibition at 1 μM), which is the cortisol level when cell is treated with the given concentration of a compound of the invention (e.g. concentration of 1 versus the cortisol excretion when cell is free of the compound of the invention: % inhibition cortisol production=[(Y′−X′)/Y′]×100 wherein X′ is the level of cortisol when the cell is treated with a compound of Formula I; and Y′ is the level of cortisol when the cell is free of compound of Formula

aldosterone synthase = target: T2, aldosterone synthase (Homo sapiens, UniProt P19099); assay: Aldosterone cell secretion in NCI-H295R cells (Ang II stimulated, SPA); format: cell-based
T2 construct: host or cells: NCI-H295R
T2 sequence (P19099 25-503): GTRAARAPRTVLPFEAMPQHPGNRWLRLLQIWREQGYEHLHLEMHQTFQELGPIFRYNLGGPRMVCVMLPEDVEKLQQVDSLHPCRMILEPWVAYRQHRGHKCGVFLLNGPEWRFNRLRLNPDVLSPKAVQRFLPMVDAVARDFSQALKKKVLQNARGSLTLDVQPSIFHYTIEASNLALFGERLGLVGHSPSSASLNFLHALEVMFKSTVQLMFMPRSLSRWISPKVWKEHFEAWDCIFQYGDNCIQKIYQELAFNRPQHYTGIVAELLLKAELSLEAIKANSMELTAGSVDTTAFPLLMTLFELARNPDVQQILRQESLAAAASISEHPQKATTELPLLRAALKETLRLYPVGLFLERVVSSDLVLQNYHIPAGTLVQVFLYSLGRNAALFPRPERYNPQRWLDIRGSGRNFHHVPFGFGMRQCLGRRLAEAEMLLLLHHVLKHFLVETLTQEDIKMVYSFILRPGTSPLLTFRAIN
From the text: In particular, the aldosterone synthase inhibitory activities in vitro can be determined by the following assay.
Human adrenocortical carcinoma NCI-H295R cell line was obtained from American Type Culture Collection (Manassas, Va.). Insulin/transferrin/selenium (ITS)-A supplement (100×), DMEM/F-12, antibiotic/antimycotic (100×), and fetal bovine serum (FBS) were purchased from Invitrogen (Carlsbad, Calif.). Anti-mouse PVT scintillation proximity assay (SPA) beads and NBS 96-well plates were obtained from GE Health Sciences (Piscataway, N.J.) and Corning (Acton, Mass.), respectively. Solid black 96-well flat bottom plates were purchased from Costar (Corning, N.Y.). Aldosterone and angiotensin (Ang II) were purchased from Sigma (St. Louis, Mo.). D[1,2,6,7-^3H(N)]aldosterone was acquired from PerkinElmer (Boston, Mass.). Nu-serum was a product of BD Biosciences (Franklin Lakes, N.J.).
For in vitro measurement of aldosterone activity, human adrenocortical carcinoma NCI-H295R cells are seeded in NBS 96-well plates at a density of 25,000 cells/well in 100 μl of a growth medium containing DMEM/F12 supplemented with 10% FCS, 2.5% Nu-serum, 1 μg ITS/ml, and 1× antibiotic/antimycotic. The medium is changed after culturing for 3 days at 37° C. under an atmosphere of 5% CO2/95% air. On the following day, cells are rinsed with 100 μl of phosphate-buffered saline (PBS) and incubated with 100 μl of treatment medium containing 1 μM Ang II and a compound at different concentrations in quadruplicate wells at 37° C. for 24 hr. At the end of incubation, 50 μl of medium is withdrawn from each well for measurement of aldosterone production by an SPA using mouse anti-aldosterone monoclonal antibodies.
Measurement of aldosterone activity can also be performed using a 96-well plate format. Each test sample is incubated with 0.02 μCi of D-[1,2,6,7-^3H(N)]aldosterone and 0.3 μg of anti-aldosterone antibody in PBS containing 0.1% Triton X-100, 0.1% bovine serum albumin, and 12% glycerol in a total volume of 200 μl at room temperature for 1 hr. Anti-mouse PVT SPA beads (50 μl) are then added to each well and incubated overnight at room temperature prior to counting in a Microbeta plate counter. The amount of aldosterone in each sample is calculated by comparing with a standard curve generated using known quantities of the hormone.
as §1
The IC50 values for active test compounds are ascertained by a simple linear regression analysis in order to construct inhibition plots without data weighting. The inhibition plot is calculated by fitting a 4-parameter logistic function to the raw data points using the least squares method. The equation of the 4-parameter logistic function is calculated as follows: Y=(d−a)/((1+(x/c)b))+a, where: a=minimum data level, b gradient, I c=ICED, d=maximum data level, x=inhibitor concentration.
The inhibition activity of aldosterone production can also be expressed in percentage inhibition (% inhibition) at a given concentration (e.g. % inhibition at 1 μM), which is the aldosterone level when the cell is treated with the given concentration of a compound of this invention (e.g. concentration of 1 μM) versus the aldosterone excretion when cell is free of the compound of the invention: % inhibition aldosterone production=[(Y′−X′)/Y′]×100 wherein X′ is the level of aldosterone when the cell is treated with a compound of Formula I and Y′ is the level of aldosterone when the cell is free of compound of Formula I.

| Compound | Cortisol cell secretion (% Inhib. @ 1 μM) (CYP11B1) | IC50 (aldosterone synthase) | inhibition at 1 µM (CYP11B1) |
| --- | --- | --- | --- |
| 1-Isopropyl-3-[5-(1-methyl-2-oxo-2,3-dihydro-1H-indol-5-yl)-pyridin-3-ylmethyl]-urea [Example 15] | 82% | 172 nM |  |
| 1-Methyl-5-(5-methyl-pyridin-3-yl)-1,3-dihydro-indol-2-one [Example 1] | 29.5% | 91.5 nM |  |
| 5-(4-Ethyl-pyridin-3-yl)-1-methyl-1,3-dihydro-indol-2-one [Example 6] | 83% | 11 nM |  |
| 5-(5-Ethoxy-pyridin-3-yl)-1-methyl-1,3-dihydro-indol-2-one [#13] | 51% | 18 nM |  |
| 5-[5-(1-Hydroxy-1-methyl-ethyl)-pyridin-3-yl]-1-methyl-1,3-dihydro-indol-2-one [Example 16] | 87% | 14 nM |  |
| CN1C(=O)Cc2cc(-c3cncc(F)c3)ccc21 [Example 2, 5-(5-Fluoro-pyridin-3-yl)-1-methyl-1,3-dihydro-indol-2-one] | 83% | 5 nM |  |
| CN1C(=O)Cc2c1ccc(-c1cccnc1)c2Cl [Example 4] |  | 10 nM | 85.5% |
| CN1C(=O)Cc2cc(-c3cncc(C(N)=O)c3)ccc21 [Example 5, 5-(1-Methyl-2-oxo-2,3-dihydro-1H-indol-5-yl)-nicotinamide] | 78% | 58 nM |  |
| COc1c(-c2cccnc2)ccc2c1CC(=O)N2C [Example 8] |  | 36 nM | 84% |
| CC(C)C(=O)Nc1cncc(-c2ccc3c(c2)CC(=O)N3C)c1 [Example 9, N-[5-(1-Methyl-2-oxo-2,3-dihydro-1H-indol-5-yl)-pyridin-3-yl]-isobutyramide] | 89% | 15 nM |  |
| Cc1c(-c2cncc(Br)c2)ccc2c1CC(=O)N2C [Example 10] |  | 4 nM | 93% |
| CN1C(=O)Cc2cc(-c3cncc(C4CC4)c3)ccc21 [Example 12] |  | 2 nM | 79% |
| CCOc1cncc(-c2ccc3c(c2)CC(=O)N3C)c1 [Example 13] |  | 20 nM | 83.5% |
| CN1C(=O)Cc2cc(-c3cncc(-c4cccnc4)c3)ccc21 [Example 14] |  | 18 nM | 60% |
| Cn1c(=O)n(C)c2cc(-c3cccnc3)ccc21 [Example 18] |  | 408 nM |  |
| Cn1c(=O)oc2cc(-c3cccnc3)ccc21 [Example 19] |  | 472 nM |  |
